Measured values taken from ChEMBL document CHEMBL1641363, “Fragment-based discovery of 6-substituted isoquinolin-1-amine based ROCK-I inhibitors” (Bioorg Med Chem Lett, 2011).

Experiments:
[1] = Half life in rat hepatocyte; assay type: ADME, cell-based, Liver; settings: hepatocytes
[2] = biological target: T1, Tyrosine-protein kinase receptor TYRO3 (Homo sapiens) (UniProt Q06418); settings: 10 uM
T1 sequence (whole entry): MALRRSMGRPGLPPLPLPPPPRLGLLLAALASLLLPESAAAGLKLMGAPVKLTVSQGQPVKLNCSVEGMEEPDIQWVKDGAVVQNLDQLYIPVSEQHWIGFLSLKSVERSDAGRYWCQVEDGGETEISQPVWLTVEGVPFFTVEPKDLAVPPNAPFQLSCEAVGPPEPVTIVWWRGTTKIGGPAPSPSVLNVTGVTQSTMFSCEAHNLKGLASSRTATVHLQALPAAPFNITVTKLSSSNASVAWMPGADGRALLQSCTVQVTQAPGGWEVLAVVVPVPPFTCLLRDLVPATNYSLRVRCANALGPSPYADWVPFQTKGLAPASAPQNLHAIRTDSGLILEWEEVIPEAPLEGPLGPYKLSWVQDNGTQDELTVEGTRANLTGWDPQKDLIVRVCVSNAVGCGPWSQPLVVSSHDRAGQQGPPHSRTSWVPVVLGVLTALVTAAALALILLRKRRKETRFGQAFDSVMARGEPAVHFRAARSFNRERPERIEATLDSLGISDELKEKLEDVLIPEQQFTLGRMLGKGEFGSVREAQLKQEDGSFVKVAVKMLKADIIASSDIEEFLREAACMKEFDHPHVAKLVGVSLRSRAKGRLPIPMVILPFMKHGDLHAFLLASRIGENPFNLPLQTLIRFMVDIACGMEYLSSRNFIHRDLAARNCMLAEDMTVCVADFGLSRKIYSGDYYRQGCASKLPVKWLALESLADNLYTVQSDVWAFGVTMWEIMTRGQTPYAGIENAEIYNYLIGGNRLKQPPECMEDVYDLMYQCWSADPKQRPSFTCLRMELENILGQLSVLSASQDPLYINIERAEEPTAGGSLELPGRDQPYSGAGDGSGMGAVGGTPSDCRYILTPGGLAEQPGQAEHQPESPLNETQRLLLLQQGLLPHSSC
Description: Inhibition of RSE at 10 uM

[3] = Oral bioavailability in C57 mouse; assay type: ADME, organism-based; settings: in vivo
[4] = Half life in human liver microsome; assay type: ADME; settings: liver microsomes
[5] = biological target: Mitogen-activated protein kinase kinase kinase kinase 4 (Homo sapiens) (UniProt O95819); settings: 10 uM
Description: Inhibition of HGK at 10 uM

[6] = biological target: T2, Dual specificity tyrosine-phosphorylation-regulated kinase 3 (Homo sapiens) (UniProt O43781); settings: 10 uM
T2 sequence (whole entry): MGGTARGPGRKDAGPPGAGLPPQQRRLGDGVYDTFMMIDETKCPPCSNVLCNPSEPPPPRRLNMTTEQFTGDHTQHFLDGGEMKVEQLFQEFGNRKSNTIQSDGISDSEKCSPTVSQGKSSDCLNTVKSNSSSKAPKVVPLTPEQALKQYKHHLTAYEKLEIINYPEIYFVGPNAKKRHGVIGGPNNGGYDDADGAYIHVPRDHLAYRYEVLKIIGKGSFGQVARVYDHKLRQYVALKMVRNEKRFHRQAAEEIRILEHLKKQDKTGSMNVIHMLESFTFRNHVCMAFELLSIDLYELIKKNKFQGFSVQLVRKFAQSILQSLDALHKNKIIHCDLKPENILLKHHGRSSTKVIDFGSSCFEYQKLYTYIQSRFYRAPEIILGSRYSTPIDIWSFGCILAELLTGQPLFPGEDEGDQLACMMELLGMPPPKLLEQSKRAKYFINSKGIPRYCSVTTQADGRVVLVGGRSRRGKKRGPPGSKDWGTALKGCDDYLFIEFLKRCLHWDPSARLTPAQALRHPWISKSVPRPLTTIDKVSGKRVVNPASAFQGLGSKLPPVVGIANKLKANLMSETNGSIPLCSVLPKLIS
Description: Inhibition of DYRK3 at 10 uM

[7] = biological target: Voltage-gated inwardly rectifying potassium channel KCNH2 (Homo sapiens, UniProt Q12809); assay: Displacement of [3H]dofetilide from human ERG
[8] = biological target: Rho-associated protein kinase 1 (Homo sapiens, UniProt Q13464); settings: 10 uM
Rho-associated protein kinase 1, sequence (Q13464 2-1354 limits assumed): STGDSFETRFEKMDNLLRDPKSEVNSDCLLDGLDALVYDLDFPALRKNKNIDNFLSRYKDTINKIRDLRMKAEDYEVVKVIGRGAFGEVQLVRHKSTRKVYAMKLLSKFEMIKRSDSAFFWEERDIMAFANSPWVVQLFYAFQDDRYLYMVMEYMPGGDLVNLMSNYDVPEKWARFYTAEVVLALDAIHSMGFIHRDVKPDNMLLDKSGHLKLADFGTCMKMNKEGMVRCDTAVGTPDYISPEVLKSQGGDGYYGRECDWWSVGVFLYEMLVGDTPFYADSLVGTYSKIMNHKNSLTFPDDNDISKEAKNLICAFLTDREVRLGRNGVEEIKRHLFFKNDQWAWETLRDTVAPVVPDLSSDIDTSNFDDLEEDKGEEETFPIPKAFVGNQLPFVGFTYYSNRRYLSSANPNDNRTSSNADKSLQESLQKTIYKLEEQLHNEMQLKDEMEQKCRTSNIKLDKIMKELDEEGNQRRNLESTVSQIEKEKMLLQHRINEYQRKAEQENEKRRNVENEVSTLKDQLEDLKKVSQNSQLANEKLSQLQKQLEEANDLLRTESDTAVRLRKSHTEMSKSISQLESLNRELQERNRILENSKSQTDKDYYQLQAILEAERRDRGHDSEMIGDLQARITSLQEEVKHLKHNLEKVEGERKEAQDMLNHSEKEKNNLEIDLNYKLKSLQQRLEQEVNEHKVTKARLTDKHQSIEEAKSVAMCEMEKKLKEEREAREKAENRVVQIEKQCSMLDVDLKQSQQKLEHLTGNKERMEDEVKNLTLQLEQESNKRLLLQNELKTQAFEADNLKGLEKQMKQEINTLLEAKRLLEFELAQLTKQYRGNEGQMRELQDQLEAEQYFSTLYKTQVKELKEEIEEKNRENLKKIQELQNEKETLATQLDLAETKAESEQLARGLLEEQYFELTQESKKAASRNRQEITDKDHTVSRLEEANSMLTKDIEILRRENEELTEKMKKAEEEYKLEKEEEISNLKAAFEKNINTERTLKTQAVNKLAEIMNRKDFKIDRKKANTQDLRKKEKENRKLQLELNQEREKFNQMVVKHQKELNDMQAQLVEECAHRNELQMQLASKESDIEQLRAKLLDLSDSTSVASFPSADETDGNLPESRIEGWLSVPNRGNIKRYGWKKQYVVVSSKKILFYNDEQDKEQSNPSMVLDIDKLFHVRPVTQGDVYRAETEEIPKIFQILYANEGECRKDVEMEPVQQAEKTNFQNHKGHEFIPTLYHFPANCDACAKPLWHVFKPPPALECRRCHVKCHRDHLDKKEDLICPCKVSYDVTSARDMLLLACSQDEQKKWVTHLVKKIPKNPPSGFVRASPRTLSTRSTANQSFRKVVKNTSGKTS
Description: Inhibition of ROCK1 at 10 uM

[9] = biological target: Rho-associated protein kinase 2 (Homo sapiens, UniProt O75116); settings: 10 uM
Rho-associated protein kinase 2, sequence (O75116 whole entry, looked up): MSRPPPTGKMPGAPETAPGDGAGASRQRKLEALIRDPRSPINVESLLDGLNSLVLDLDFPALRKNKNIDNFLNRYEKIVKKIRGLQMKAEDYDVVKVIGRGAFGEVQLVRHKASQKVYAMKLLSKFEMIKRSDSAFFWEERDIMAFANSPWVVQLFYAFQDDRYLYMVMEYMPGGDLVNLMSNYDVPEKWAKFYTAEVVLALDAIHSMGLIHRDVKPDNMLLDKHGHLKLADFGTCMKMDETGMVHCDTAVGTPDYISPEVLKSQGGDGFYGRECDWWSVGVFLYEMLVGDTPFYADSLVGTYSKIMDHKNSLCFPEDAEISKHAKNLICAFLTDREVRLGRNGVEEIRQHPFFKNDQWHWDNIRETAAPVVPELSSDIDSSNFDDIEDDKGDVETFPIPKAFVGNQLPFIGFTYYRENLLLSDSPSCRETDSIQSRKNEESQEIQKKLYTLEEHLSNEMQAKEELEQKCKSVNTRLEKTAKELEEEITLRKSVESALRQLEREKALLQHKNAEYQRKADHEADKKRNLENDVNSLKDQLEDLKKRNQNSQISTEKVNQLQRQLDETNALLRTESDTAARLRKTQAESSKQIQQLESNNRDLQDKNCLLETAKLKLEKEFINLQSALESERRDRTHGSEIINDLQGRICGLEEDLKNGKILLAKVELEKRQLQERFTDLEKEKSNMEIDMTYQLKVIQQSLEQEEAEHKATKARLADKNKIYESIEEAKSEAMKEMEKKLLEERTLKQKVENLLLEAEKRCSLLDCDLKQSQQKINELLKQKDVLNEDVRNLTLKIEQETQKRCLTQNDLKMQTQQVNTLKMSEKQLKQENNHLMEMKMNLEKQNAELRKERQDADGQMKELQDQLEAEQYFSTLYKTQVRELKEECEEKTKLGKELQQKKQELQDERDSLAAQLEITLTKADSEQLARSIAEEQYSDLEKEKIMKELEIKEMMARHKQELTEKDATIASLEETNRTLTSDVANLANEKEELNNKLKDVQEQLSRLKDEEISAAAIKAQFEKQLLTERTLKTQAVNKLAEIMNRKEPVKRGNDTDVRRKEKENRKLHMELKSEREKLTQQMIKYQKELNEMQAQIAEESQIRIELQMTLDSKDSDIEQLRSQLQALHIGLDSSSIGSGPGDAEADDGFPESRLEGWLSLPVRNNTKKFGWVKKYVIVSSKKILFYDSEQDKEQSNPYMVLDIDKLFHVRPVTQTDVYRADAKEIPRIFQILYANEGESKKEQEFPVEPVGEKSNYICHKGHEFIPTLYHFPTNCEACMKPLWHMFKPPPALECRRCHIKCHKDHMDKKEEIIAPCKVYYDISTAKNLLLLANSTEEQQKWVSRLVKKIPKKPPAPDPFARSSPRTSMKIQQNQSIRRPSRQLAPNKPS
Description: Inhibition of ROCK2 at 10 uM

[10] = Half life in C57 mouse; assay type: ADME, organism-based; settings: in vivo
[11] = Plasma clearance in C57 mouse; assay type: ADME, organism-based
[12] = biological target: Serine/threonine-protein kinase SIK2 (Homo sapiens) (UniProt Q9H0K1); settings: 10 uM
Serine/threonine-protein kinase SIK2 (Homo sapiens), sequence (Q9H0K1 whole entry, looked up): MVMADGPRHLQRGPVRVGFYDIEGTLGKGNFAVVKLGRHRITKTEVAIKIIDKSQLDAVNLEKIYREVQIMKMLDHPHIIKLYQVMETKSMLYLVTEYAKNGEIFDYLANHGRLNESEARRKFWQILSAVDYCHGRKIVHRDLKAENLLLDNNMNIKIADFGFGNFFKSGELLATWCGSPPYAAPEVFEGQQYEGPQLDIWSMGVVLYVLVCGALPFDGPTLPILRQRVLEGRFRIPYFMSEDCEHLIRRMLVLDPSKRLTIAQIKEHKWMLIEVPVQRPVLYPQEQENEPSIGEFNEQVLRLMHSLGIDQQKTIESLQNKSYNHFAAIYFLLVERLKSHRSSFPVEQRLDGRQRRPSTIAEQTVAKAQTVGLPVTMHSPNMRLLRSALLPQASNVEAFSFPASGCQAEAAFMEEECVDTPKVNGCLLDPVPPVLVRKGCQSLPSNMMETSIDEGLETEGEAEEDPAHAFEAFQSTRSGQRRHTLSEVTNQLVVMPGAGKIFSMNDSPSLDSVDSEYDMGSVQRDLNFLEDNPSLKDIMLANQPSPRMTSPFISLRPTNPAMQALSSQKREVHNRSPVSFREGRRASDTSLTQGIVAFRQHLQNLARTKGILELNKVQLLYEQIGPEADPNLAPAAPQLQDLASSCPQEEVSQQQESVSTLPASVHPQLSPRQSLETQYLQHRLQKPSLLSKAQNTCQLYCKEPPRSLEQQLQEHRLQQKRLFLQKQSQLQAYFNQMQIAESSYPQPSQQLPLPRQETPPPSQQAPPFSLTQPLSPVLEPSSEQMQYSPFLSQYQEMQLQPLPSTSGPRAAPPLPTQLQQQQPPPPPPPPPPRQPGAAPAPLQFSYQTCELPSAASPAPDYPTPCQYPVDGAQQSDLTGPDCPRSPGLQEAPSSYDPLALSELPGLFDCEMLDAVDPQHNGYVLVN
Description: Inhibition of SNFILK2 at 10 uM

[13] = biological target: Proto-oncogene tyrosine-protein kinase receptor Ret (Homo sapiens) (UniProt P07949); settings: 10 uM
Proto-oncogene tyrosine-protein kinase receptor Ret (Homo sapiens), sequence (P07949 whole entry): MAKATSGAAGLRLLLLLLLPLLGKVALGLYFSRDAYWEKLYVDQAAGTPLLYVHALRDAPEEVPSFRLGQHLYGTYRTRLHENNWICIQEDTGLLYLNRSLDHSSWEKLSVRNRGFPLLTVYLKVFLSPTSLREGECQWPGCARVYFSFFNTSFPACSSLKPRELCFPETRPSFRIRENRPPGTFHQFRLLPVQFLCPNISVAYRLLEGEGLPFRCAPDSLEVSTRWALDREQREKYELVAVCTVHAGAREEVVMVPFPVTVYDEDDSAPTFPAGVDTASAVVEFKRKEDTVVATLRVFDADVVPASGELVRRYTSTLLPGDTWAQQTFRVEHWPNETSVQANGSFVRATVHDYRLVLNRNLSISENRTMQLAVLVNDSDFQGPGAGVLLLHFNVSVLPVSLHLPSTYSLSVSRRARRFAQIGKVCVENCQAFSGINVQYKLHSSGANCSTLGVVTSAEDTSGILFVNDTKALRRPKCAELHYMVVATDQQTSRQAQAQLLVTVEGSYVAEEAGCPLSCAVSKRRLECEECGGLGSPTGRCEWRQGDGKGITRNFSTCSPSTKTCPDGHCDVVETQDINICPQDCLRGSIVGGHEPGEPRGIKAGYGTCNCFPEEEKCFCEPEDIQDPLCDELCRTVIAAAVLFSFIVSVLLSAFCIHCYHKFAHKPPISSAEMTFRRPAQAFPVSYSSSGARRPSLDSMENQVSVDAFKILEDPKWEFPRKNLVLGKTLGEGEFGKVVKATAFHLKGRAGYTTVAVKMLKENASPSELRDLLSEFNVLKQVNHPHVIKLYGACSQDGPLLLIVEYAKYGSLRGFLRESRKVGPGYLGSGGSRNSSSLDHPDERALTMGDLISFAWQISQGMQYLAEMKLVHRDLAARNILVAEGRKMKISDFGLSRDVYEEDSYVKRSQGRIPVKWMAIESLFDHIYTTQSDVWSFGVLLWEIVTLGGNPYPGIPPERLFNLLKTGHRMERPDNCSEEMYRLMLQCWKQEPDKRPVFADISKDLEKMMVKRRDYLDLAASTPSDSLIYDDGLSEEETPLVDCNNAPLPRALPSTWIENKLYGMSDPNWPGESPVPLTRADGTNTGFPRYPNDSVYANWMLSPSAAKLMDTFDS
Description: Inhibition of RET at 10 uM

[14] = biological target: T3, Serine/threonine-protein kinase Sgk2 (Homo sapiens) (UniProt Q9HBY8); settings: 10 uM
T3 sequence (whole entry): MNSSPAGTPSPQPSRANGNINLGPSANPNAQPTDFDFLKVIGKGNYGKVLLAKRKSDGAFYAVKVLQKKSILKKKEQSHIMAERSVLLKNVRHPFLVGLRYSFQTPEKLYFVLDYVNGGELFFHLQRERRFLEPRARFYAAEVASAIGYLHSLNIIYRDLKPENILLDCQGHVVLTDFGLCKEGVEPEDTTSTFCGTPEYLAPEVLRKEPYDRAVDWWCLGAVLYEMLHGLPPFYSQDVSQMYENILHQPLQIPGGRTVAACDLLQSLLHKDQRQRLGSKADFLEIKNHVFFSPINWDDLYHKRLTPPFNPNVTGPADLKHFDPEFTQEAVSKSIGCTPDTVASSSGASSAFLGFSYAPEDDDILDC
Description: Inhibition of SGK2 at 10 uM

half-life [1]: 1.17 h | inhibition [2]: > 80% | bioavailability [3]: > 75% | half-life [4]: > 2 h | inhibition [5]: > 80% | inhibition [6]: > 80% | inhibition [8]: > 80% | inhibition [9]: > 80% | half-life [10]: 5.8 h | clearance [11]: 9.5 mL/min/kg | inhibition [12]: > 80% | inhibition [13]: > 80% | inhibition [14]: > 80%
Compound: Nc1nccc2cc(O[C@H]3CCCNC3)ccc12
Ki [7]: 20 µM
